From PMC11274943, “Discovery of Benzisothiazolone Derivatives as Bifunctional Inhibitors of HIV-1 Reverse Transcriptase DNA Polymerase and Ribonuclease H Activities” (Biomolecules, 2024)
Several values for one entry are separate records, joined by “and”; a condition that tells them apart may be missing. Equal entries are not always repeated.

What was measured:
Format in all cases: biochemical
[1] = biological target: T1, G190A HIV-1 RT RNase H activity (Human immunodeficiency virus type 1 group M subtype B, UniProt P04585, G777A); experiment: FRET-based RT RNase H cleavage assay, G190A RT
T1 construct: made in house
Experimental: (§1) WT (wild-type) RT, and RTs harboring the NNRTI-resistant mutations K101E, K103N, Y181C, Y188C, G190A and P236L, were overexpressed and purified to homogeneity as described previously. The RT concentration was determined spectrophotometrically at 280 nm using an absorbance coefficient of 260,450 M^−1·cm^−1. The 7-hydroxy tropolone derivative 19,616 (2,7-dihydroxy 2,4,6-cyclo-heptatrien-1-one) was purchased from Molecular Diversity Preservation International (Basel, Switzerland). Nevirapine was purchased from Selleckchem (Houston, TX, USA). The benzisothiazolone derivatives were procured from MolPort (New York, NY, USA) or Enamine (Kyiv, Ukraine). The DNA and RNA oligonucleotides were synthesized and purified by Integrated DNA Technologies (Coralville, IA, USA). All other reagents were of the highest quality available and were used without further purification.
(§2) The following RNA/DNA T/P substrate was used in the present study: an 18-nucleotide RNA template (RNA-18T: 5′-[…]-3′) was annealed to an 18-nucleotide primer (DNA-18T: 5′-[…]-3′), as described previously. Fluorescein and IowaBlack FQTM were covalently attached to the 3′- and 5′-ter-mini of the RNA and DNA oligonucleotides, respectively.
(§3) The FRET-based RNase H cleavage assays were carried out as described previously. Fluorescence was measured with a SpectraMax M2 microplate spectrofluorometer (Molecular Devices, San Jose, CA, USA) using an excitation wavelength of 490 nm and an emission wavelength of 528 nm. Data were analyzed using SoftMax Pro software, version 4.7.1 (Molecular Devices, San Jose, CA, USA).

[2] = test system: G190A HIV-1 RT RNase H activity; experiment: FRET-based RT RNase H cleavage assay, G190A RT; details: G190A RT; fold resistance IC50 mutant/IC50 WT
Experimental: as §1, §2, §3

[3] = test system: Y181C HIV-1 RT RNase H activity; experiment: FRET-based RT RNase H cleavage assay, Y181C RT; details: Y181C RT; fold resistance IC50 mutant/IC50 WT
Experimental: as §1, §2, §3

[4] = biological target: T2, Y181C HIV-1 RT RNase H activity (Human immunodeficiency virus type 1 group M subtype B, UniProt P04585, Y768C); experiment: FRET-based RT RNase H cleavage assay, Y181C RT
T2 construct: made in house
Experimental: as §1, §2, §3

[5] = test system: Y188C HIV-1 RT RNase H activity; experiment: FRET-based RT RNase H cleavage assay, Y188C RT; details: Y188C RT; fold resistance IC50 mutant/IC50 WT
Experimental: as §1, §2, §3

[6] = biological target: T3, Y188C HIV-1 RT RNase H activity (Human immunodeficiency virus type 1 group M subtype B, UniProt P04585, Y775C); experiment: FRET-based RT RNase H cleavage assay, Y188C RT
T3 construct: made in house
Experimental: as §1, §2, §3

[7] = test system: P236L HIV-1 RT RNase H activity; experiment: FRET-based RT RNase H cleavage assay, P236L RT; details: P236L RT; fold resistance IC50 mutant/IC50 WT
Experimental: as §1, §2, §3

[8] = biological target: T4, P236L HIV-1 RT RNase H activity (Human immunodeficiency virus type 1 group M subtype B, UniProt P04585, P823L); experiment: FRET-based RT RNase H cleavage assay, P236L RT
T4 construct: made in house
Experimental: as §1, §2, §3

[9] = test system: K103N HIV-1 RT RNase H activity; experiment: FRET-based RT RNase H cleavage assay, K103N RT; details: K103N RT; fold resistance IC50 mutant/IC50 WT
Experimental: as §1, §2, §3

[10] = biological target: T5, K103N HIV-1 RT RNase H activity (Human immunodeficiency virus type 1 group M subtype B, UniProt P04585, K690N); experiment: FRET-based RT RNase H cleavage assay, K103N RT
T5 construct: made in house
Experimental: as §1, §2, §3

[11] = biological target: T6, WT HIV-1 RT RNase H activity (Human immunodeficiency virus type 1 group M subtype B, UniProt P04585); experiment: biochemical
T6 construct: made in house
Experimental: as §1, with “Nevirapine was purchased from Selleckchem (Houston, TX, USA).” left out
Compounds were screened at a final concentration of 10 µM in 1× assay buffer (50 mM Tris pH 8.0, 60 mM KCl, 5 mM MgCl2) containing 1% DMSO in 384-well Greiner black polystyrene plates (VWR catalog # 82051-272). A total of 10 µL of intermediate diluted compounds (100 µM in 10% DMSO) was transferred into assay plates using the Evolution-3 (EP3) (Perkin Elmer, Waltham, MA, USA) automated liquid handling platform outfitted with a 384-well transfer head. A total of 40 µL of RT-RNase H enzyme (60 ng per well) were then dispensed into each well using the Titertek MAP-C2 reagent dispenser platform (Huntsville, AL, USA). A total of 50 µL of the RNA/DNA duplex (140 nM) substrate was then dispensed into each well using the MAP-C2 dispenser, and the assay plates were then incubated at room temperature for 20 min. After 20 min, the assay was terminated by the addition of 10 µL of 1 M EDTA pH 9.0 stop buffer. Relative fluorescent unit (RFU) signals, Excitation 490 nm and Emission 528 nm (Cutoff 515 nm), were captured on the Spectromax M5e plate reader (Molecular Devices, Menlo, CA, USA). […] The template also calculated the plate signal-to-background (S:B) ratios (mean maximum signal/mean minimum signal) and Z’-factor coefficient HTS performance statistics.
as §2, §3
We implemented a rapid, robust and inexpensive fluorescence-based 384-well assay for the measurement of RT RNase H activity, previously described by Parniak et al.. The substrate comprises an 18-nucleotide 3′-fluorescein-labeled heteropolymeric RNA annealed to a complementary 5′-dabcyl-modified DNA. RT cleaves the RNA strand of this substrate close to the 3′ end, promoting the dissociation of the fluorescein-labeled RNA fragment and generating a detectable fluorescent signal. We used this HTS assay to screen 65,239 compounds at a final concentration of 10 µM.

CCOC(=O)Cc1csc(-n2sc3ccccc3c2=O)n1 [Compound 2, ethyl 2-(2-(3-oxobenzo[d]isothiazol-2(3H)-yl)thiazol-4-yl)acetate]
IC50 [1]: 0.23 ± 0.02 µM
Inhibition of RT RNase H Activity Fold-R [2]: 1.8
Inhibition of RT RNase H Activity Fold-R [3]: 4.2
IC50 [4]: 0.55 ± 0.02 µM
Inhibition of RT RNase H Activity Fold-R [5]: 4.5
IC50 [6]: 0.59 ± 0.04 µM
Inhibition of RT RNase H Activity Fold-R [7]: 1.6
IC50 [8]: 0.21 ± 0.01 µM
Inhibition of RT RNase H Activity Fold-R [9]: 1.8
IC50 [10]: 0.24 ± 0.12 µM
IC50 [11]: 0.13 ± 0.04 µM

Cc1ccc(-n2sc3ccccc3c2=O)cc1S(=O)(=O)N1CCCCC1 [Compound 1, 2-(4-methyl-3-(piperidin-1-ylsulfonyl)phenyl)benzo[d]isothiazol-3(2H)-one]
IC50 [1]: 0.21 ± 0.02 µM
Inhibition of RT RNase H Activity Fold-R [2]: 1.3
Inhibition of RT RNase H Activity Fold-R [3]: 2.9
IC50 [4]: 0.47 ± 0.05 µM
Inhibition of RT RNase H Activity Fold-R [5]: 2.0
IC50 [6]: 0.32 ± 0.01 µM
Inhibition of RT RNase H Activity Fold-R [7]: 1.4
IC50 [8]: 0.22 ± 0.01 µM
Inhibition of RT RNase H Activity Fold-R [9]: 2 and 2.1
IC50 [10]: 0.34 ± 0.04 µM
IC50 [11]: 0.16 ± 0.03 µM

CCN(CC)S(=O)(=O)c1cccc(-n2sc3ccccc3c2=O)c1 [Compound 4, N,N-diethyl-3-(3-oxobenzo[d]isothiazol-2(3H)-yl)benzenesulfonamide]
IC50 [1]: 0.31 ± 0.04 µM
Inhibition of RT RNase H Activity Fold-R [2]: 1.2
Inhibition of RT RNase H Activity Fold-R [3]: 1.0
IC50 [4]: 0.27 ± 0.03 µM
Inhibition of RT RNase H Activity Fold-R [5]: 4.2
IC50 [6]: 1.1 ± 0.32 µM
Inhibition of RT RNase H Activity Fold-R [7]: 1.2
IC50 [8]: 0.31 ± 0.04 µM
Inhibition of RT RNase H Activity Fold-R [9]: 3.2
IC50 [10]: 0.83 ± 0.23 µM
IC50 [11]: 0.26 ± 0.08 µM
